Source: patent US20260130395A1, “Water Dispersible Botanical Compositions” (Aquila Black Limited, priority 2021, published 2026)

Assays:
[1] = Stability of cannabinoid entourage and Vitamin E components of the powder concentrate by LCMSMS; assay type: physicochemical; details: powder stored at 21-25° C.
Description: At each time period, 0.05 g of powder was dissolved in 10 ml-15 of ethanol, diluted to fall within the analytical range, and injected into the LCMSMS for analysis.

[2] = Stability of cannabinoid compounds and Vitamin E components in Beverage 1 (AB White) by LCMSMS; assay type: physicochemical; details: for Stability of Plant-Derived Cannabinoid Compounds in AB White, 8° C.: AB White stored at 8° C.; for Stability of Plant-Derived Cannabinoid Compounds in AB White, 21-25° C.: AB White stored at 21-25° C.

For C=C(C)[C@@H]1CCC(C)=C[C@H]1c1c(O)cc(CCCCC)c(C(=O)O)c1O [CBDA, cannabidiolic acid], the “Stability of Plant-Derived Cannabinoid Compounds in Powder Concentrate” value (shortened to “Stability … in Powder Concentrate”) ([1]; 0 days) was 0.410 mg/g powder, the “Stability … in Powder Concentrate” value ([1]; 1 days) was 0.412 mg/g powder and the “Stability … in Powder Concentrate” value ([1]; 2 days) was 0.407 mg/g powder. For the same compound, the “Stability … in Powder Concentrate” value ([1]; 3 days) was 0.406 mg/g powder, the “Stability … in Powder Concentrate” value ([1]; 5 days) was 0.414 mg/g powder and the “Stability … in Powder Concentrate” value ([1]; 8 days) was 0.415 mg/g powder. The “Stability … in Powder Concentrate” value ([1]; 9 days) was 0.410 mg/g powder, the “Stability … in Powder Concentrate” value ([1]; 10 days) was 0.418 mg/g powder and the “Stability … in Powder Concentrate” value ([1]; 11 days) was 0.415 mg/g powder. For the same compound, the “Stability … in Powder Concentrate” value ([1]; 12 days) was 0.396 mg/g powder, the “Stability … in Powder Concentrate” value ([1]; 15 days) was 0.399 mg/g powder and the “Stability … in Powder Concentrate” value ([1]; 16 days) was 0.427 mg/g powder. The “Stability … in Powder Concentrate” value ([1]; 17 days) was 0.421 mg/g powder, the “Stability … in Powder Concentrate” value ([1]; 18 days) was 0.418 mg/g powder and the “Stability … in Powder Concentrate” value ([1]; 19 days) was 0.414 mg/g powder. The “Stability … in Powder Concentrate” value ([1]; 22 days) was 0.419 mg/g powder, the “Stability … in Powder Concentrate” value ([1]; 23 days) was 0.396 mg/g powder and the “Stability … in Powder Concentrate” value ([1]; 24 days) was 0.403 mg/g powder. The “Stability … in Powder Concentrate” value ([1]; 25 days) was 0.401 mg/g powder, the “Stability … in Powder Concentrate” value ([1]; 26 days) was 0.397 mg/g powder and the “Stability … in Powder Concentrate” value ([1]; 29 days) was 0.426 mg/g powder. The “Stability … in Powder Concentrate” value ([1]; 30 days) was 0.405 mg/g powder, the “Stability … in Powder Concentrate” value ([1]; 60 days) was 0.418 mg/g powder and the “Stability … in Powder Concentrate” value ([1]; 90 days) was 0.413 mg/g powder. The “Stability … in Powder Concentrate” value ([1]; 120 days) was 0.403 mg/g powder, the “Stability … in Powder Concentrate” value ([1]; 150 days) was 0.412 mg/g powder and the “Stability … in Powder Concentrate” value ([1]; 180 days) was 0.422 mg/g powder. For the same compound, the “Stability … in Powder Concentrate” value ([1]; 210 days) was 0.427 mg/g powder, the “Stability … in Powder Concentrate” value ([1]; 240 days) was 0.417 mg/g powder and the “Stability … in Powder Concentrate” value ([1]; 270 days) was 0.424 mg/g powder. The “Stability … in Powder Concentrate” value ([1]; 300 days) was 0.409 mg/g powder, the “Stability … in Powder Concentrate” value ([1]; 330 days) was 0.424 mg/g powder and the “Stability … in Powder Concentrate” value ([1]; 360 days) was 0.413 mg/g powder. The “Stability … in Powder Concentrate” value ([1]; 390 days) was 0.407 mg/g powder, the “Stability … in Powder Concentrate” value ([1]; 420 days) was 0.420 mg/g powder and the “Stability … in Powder Concentrate” value ([1]; 450 days) was 0.398 mg/g powder. The “Stability … in Powder Concentrate” value ([1]; 480 days) was 0.418 mg/g powder, the “Stability … in Powder Concentrate” value ([1]; 510 days) was 0.411 mg/g powder and the “Stability … in Powder Concentrate” value ([1]; 540 days) was 0.425 mg/g powder. The “Stability … in Powder Concentrate” value ([1]; 570 days) was 0.408 mg/g powder, the “Stability of Plant-Derived Cannabinoid Compounds in AB White, 8° C.” value (shortened to “Stability … 8° C.”) ([2]; 0 days) was 1.75 µg/mL and the “Stability … 8° C.” value ([2]; 1 days) was 1.72 µg/mL. The “Stability … 8° C.” value ([2]; 2 days) was 1.76 µg/mL, the “Stability … 8° C.” value ([2]; 3 days) was 1.76 µg/mL and the “Stability … 8° C.” value ([2]; 5 days) was 1.71 µg/mL. For the same compound, the “Stability … 8° C.” value ([2]; 8 days) was 1.75 µg/mL, the “Stability … 8° C.” value ([2]; 9 days) was 1.73 µg/mL and the “Stability … 8° C.” value ([2]; 10 days) was 1.76 µg/mL. For the same compound, the “Stability … 8° C.” value ([2]; 11 days) was 1.70 µg/mL, the “Stability … 8° C.” value ([2]; 12 days) was 1.71 µg/mL and the “Stability … 8° C.” value ([2]; 15 days) was 1.74 µg/mL. For the same compound, the “Stability … 8° C.” value ([2]; 16 days) was 1.73 µg/mL, the “Stability … 8° C.” value ([2]; 17 days) was 1.73 µg/mL and the “Stability … 8° C.” value ([2]; 18 days) was 1.76 µg/mL. The “Stability … 8° C.” value ([2]; 19 days) was 1.74 µg/mL, the “Stability … 8° C.” value ([2]; 22 days) was 1.70 µg/mL and the “Stability … 8° C.” value ([2]; 23 days) was 1.76 µg/mL. The “Stability … 8° C.” value ([2]; 24 days) was 1.72 µg/mL, the “Stability … 8° C.” value ([2]; 25 days) was 1.75 µg/mL and the “Stability … 8° C.” value ([2]; 26 days) was 1.75 µg/mL. The “Stability … 8° C.” value ([2]; 29 days) was 1.75 µg/mL, the “Stability … 8° C.” value ([2]; 30 days) was 1.76 µg/mL and the “Stability … 8° C.” value ([2]; 60 days) was 1.70 µg/mL. The “Stability … 8° C.” value ([2]; 90 days) was 1.70 µg/mL, the “Stability … 8° C.” value ([2]; 120 days) was 1.67 µg/mL and the “Stability … 8° C.” value ([2]; 150 days) was 1.71 µg/mL. The “Stability … 8° C.” value ([2]; 180 days) was 1.75 µg/mL, the “Stability … 8° C.” value ([2]; 210 days) was 1.68 µg/mL and the “Stability … 8° C.” value ([2]; 240 days) was 1.70 µg/mL. For the same compound, the “Stability … 8° C.” value ([2]; 270 days) was 1.70 µg/mL, the “Stability … 8° C.” value ([2]; 300 days) was 1.69 µg/mL and the “Stability … 8° C.” value ([2]; 330 days) was 1.70 µg/mL. The “Stability … 8° C.” value ([2]; 360 days) was 1.70 µg/mL, the “Stability … 8° C.” value ([2]; 390 days) was 1.70 µg/mL and the “Stability … 8° C.” value ([2]; 420 days) was 1.67 µg/mL. For the same compound, the “Stability … 8° C.” value ([2]; 450 days) was 1.68 µg/mL, the “Stability … 8° C.” value ([2]; 480 days) was 1.66 µg/mL and the “Stability … 8° C.” value ([2]; 510 days) was 1.61 µg/mL. For the same compound, the “Stability … 8° C.” value ([2]; 540 days) was 1.61 µg/mL, the “Stability … 8° C.” value ([2]; 570 days) was 1.60 µg/mL and the “Stability of Plant-Derived Cannabinoid Compounds in AB White, 21-25° C.” value (“Stability … 21-25° C.” below) ([2]; 0 days) was 1.75 µg/mL. For the same compound, the “Stability … 21-25° C.” value ([2]; 1 days) was 1.76 µg/mL, the “Stability … 21-25° C.” value ([2]; 2 days) was 1.70 µg/mL and the “Stability … 21-25° C.” value ([2]; 3 days) was 1.71 µg/mL. For the same compound, the “Stability … 21-25° C.” value ([2]; 5 days) was 1.69 µg/mL, the “Stability … 21-25° C.” value ([2]; 8 days) was 1.77 µg/mL and the “Stability … 21-25° C.” value ([2]; 9 days) was 1.74 µg/mL. For the same compound, the “Stability … 21-25° C.” value ([2]; 10 days) was 1.73 µg/mL, the “Stability … 21-25° C.” value ([2]; 11 days) was 1.76 µg/mL and the “Stability … 21-25° C.” value ([2]; 12 days) was 1.74 µg/mL. For the same compound, the “Stability … 21-25° C.” value ([2]; 15 days) was 1.69 µg/mL, the “Stability … 21-25° C.” value ([2]; 16 days) was 1.75 µg/mL and the “Stability … 21-25° C.” value ([2]; 17 days) was 1.72 µg/mL. For the same compound, the “Stability … 21-25° C.” value ([2]; 18 days) was 1.75 µg/mL, the “Stability … 21-25° C.” value ([2]; 19 days) was 1.70 µg/mL and the “Stability … 21-25° C.” value ([2]; 22 days) was 1.70 µg/mL. For the same compound, the “Stability … 21-25° C.” value ([2]; 23 days) was 1.73 µg/mL, the “Stability … 21-25° C.” value ([2]; 24 days) was 1.70 µg/mL and the “Stability … 21-25° C.” value ([2]; 25 days) was 1.73 µg/mL. The “Stability … 21-25° C.” value ([2]; 26 days) was 1.75 µg/mL, the “Stability … 21-25° C.” value ([2]; 29 days) was 1.76 µg/mL and the “Stability … 21-25° C.” value ([2]; 30 days) was 1.71 µg/mL. The “Stability … 21-25° C.” value ([2]; 60 days) was 1.68 µg/mL, the “Stability … 21-25° C.” value ([2]; 90 days) was 1.67 µg/mL and the “Stability … 21-25° C.” value ([2]; 120 days) was 1.66 µg/mL. For the same compound, the “Stability … 21-25° C.” value ([2]; 150 days) was 1.64 µg/mL, the “Stability … 21-25° C.” value ([2]; 180 days) was 1.69 µg/mL and the “Stability … 21-25° C.” value ([2]; 210 days) was 1.73 µg/mL. The “Stability … 21-25° C.” value ([2]; 240 days) was 1.73 µg/mL, the “Stability … 21-25° C.” value ([2]; 270 days) was 1.71 µg/mL and the “Stability … 21-25° C.” value ([2]; 300 days) was 1.73 µg/mL. The “Stability … 21-25° C.” value ([2]; 330 days) was 1.72 µg/mL, the “Stability … 21-25° C.” value ([2]; 360 days) was 1.69 µg/mL and the “Stability … 21-25° C.” value ([2]; 390 days) was 1.67 µg/mL. For the same compound, the “Stability … 21-25° C.” value ([2]; 420 days) was 1.64 µg/mL, the “Stability … 21-25° C.” value ([2]; 450 days) was 1.70 µg/mL and the “Stability … 21-25° C.” value ([2]; 480 days) was 1.63 µg/mL. For the same compound, the “Stability … 21-25° C.” value ([2]; 510 days) was 1.66 µg/mL, the “Stability … 21-25° C.” value ([2]; 540 days) was 1.63 µg/mL and the “Stability … 21-25° C.” value ([2]; 570 days) was 1.61 µg/mL.
